IC50 data for one compound are collected here from ChEMBL document CHEMBL5257041, “An exhaustive perspective on structural insights of SGLT2 inhibitors: A novel class of antidiabetic agent” (Eur J Med Chem, 2020).

The structures appear in SMILES notation.

This assay addresses T1, Sodium/glucose cotransporter 2 (Homo sapiens, UniProt P31639).
T1 sequence (P31639 whole entry): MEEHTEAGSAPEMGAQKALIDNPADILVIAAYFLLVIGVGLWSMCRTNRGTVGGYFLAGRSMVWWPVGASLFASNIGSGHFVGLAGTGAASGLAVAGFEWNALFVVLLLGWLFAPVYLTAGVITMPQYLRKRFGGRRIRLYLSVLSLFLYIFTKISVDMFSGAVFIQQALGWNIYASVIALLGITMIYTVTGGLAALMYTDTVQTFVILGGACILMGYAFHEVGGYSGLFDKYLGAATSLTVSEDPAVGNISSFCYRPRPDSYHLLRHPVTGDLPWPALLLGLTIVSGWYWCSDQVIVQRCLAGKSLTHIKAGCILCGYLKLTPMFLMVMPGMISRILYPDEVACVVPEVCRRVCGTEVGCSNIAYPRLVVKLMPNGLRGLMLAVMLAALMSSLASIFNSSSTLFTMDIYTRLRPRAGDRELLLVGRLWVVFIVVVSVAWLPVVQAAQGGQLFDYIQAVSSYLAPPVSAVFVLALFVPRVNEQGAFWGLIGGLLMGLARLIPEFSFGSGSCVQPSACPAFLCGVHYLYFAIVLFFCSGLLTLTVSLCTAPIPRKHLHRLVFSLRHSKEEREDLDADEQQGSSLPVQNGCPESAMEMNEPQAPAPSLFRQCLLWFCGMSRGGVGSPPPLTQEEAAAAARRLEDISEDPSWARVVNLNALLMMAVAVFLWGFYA
Description: Inhibition of human SGLT2.

Take `CCc1ccc(Cc2cc([C@@H]3O[C@H](CO)C(F)(F)[C@H](O)[C@H]3O)ccc2Cl)cc1`: it took 0.35 nM to reach half-maximal inhibition (IC50).
